Data set [1] in a line: stability of the polymorphic form (statement only). The format is physicochemical. Conditions: solid form; test conditions not given.
Data set [2] in a line: DSC thermogram of combined Forms A, B and C; relative solubility inferred from melting points. In kind it is physicochemical. Conditions: suggested by the lower DSC melting point (weaker crystal packing forces), not measured directly. The text has this:
Characterization of Form A of cilostazol, Form B of cilostazol, and Form C of cilostazol was further completed using DSC thermograms, shown in FIGS. 3, 4, and 5, respectively, with DSC thermograms for combinations of Form A and Form B; Form B and Form C; and Forms A, B, and C are shown in FIGS. 6, 7, and 8 respectively. DSC data were generated using a Mettler-Toledo DSC 821^e (Columbus, Ohio) with a Julabo FT900 intercooler chiller (Julabo Company; Allentown, Pa.). In general, samples were analyzed in a vented, sealed aluminum pan. Because the endothermic peak may vary depending upon the rate of heating and the calibration and precision of the instrument, with the amount of peak variation dependent upon the heating rate used, all thermograms included herein were run under the same, consistent conditions: heating at 10° C. per minute under a nitrogen purge at 40 mL/minute.
FIG. 8 illustrates a DSC thermogram for the combination of Form A, Form B and Form C having a second heating cycle with a maximum temperature of about 110° C. with a holding time of about 30 minutes. The peaks in the third heating cycle show a Form A to Form B to Form C peak area ratio of approximately 8:2:1, respectively, with the relative amount of Form A, Form B and Form C further variable on the heat of enthalpy of each polymorphic form.
(In general: DSC measures the heat that a sample takes up or gives off during a temperature scan.)

The conditions of data set [3]: Form A as prepared by the procedures of the '479 patent; cited from earlier work.
For data set [4] the following is noted: Form A as prepared by the procedures of the '479 patent; cited from earlier work. The source holds these as a separate data set.

As to `O=C1CCc2cc(OCCCCc3nnnn3C3CCCCC3)ccc2N1` [Form B, 6-[4-(1-cyclohexyl-1H-tetrazol-5-yl)butoxy]-3,4-dihydro-2(1H)-quinolinone], in data set [1], the stability of polymorph result is “stable”. For the same compound, in data set [2], the “solubility relative to Form A” value is recorded as “more soluble than Form A”.
For `O=C1CCc2cc(OCCCCc3nnnn3C3CCCCC3)ccc2N1` [Form A, 6-[4-(1-cyclohexyl-1H-tetrazol-5-yl)butoxy]-3,4-dihydro-2(1H)-quinolinone], the aqueous solubility entry in data set [3] is given as “low”. In addition, the bioavailability result in data set [4] is “low”.
